These results are taken from patent US20120309704A1, “COMPOSITIONS FOR TREATMENT OF CHEMORESISTANT AND/OR POTENTIALLY CHEMORESISTANT LEUKAEMIAS” (priority 2009, published 2012).

Assay [1] deals with ALL cell lines REH, RS4, 11 and 697 and primary ALL cells. The assay can be described thus: MSC-mediated chemoresistance of ALL cell lines and primary ALL cells. It is filed as cell-based, human. The method, then: FIG. 4. hERG1 activity regulates the chemoresistance induced by stromal cells in leukaemic cells a). […] The percentage of Annexin V +/ PI− cells was evaluated after 48 hours of culture.
For cell counting, after 48 hours of incubation at 37° C. and 5% di CO2, cells were recovered from the plates. We next evaluated the apoptosis. During apoptosis, a series of changes of plasma membrane occurs, one of these alterations of plasma membrane is the shift of phosphatidylserine (PS) from the inner to the outer surface of the cell. The recognition of PS by macrophage allows them to engulf the apoptotic cell, preventing the inflammatory process. The analysis of PS on the plasma membrane of apoptotic cells is performed by using annexin V-fluorescein and propidium iodide (PI) assay (Annexin-V-Fluos Staining Kit, Roche).
We then identified three cell populations: i) viable cells (annexin V-/propidium iodide-), ii) apoptotic cells (early apoptosis) (annexin V+), and iii) cells in late apoptosis or necrotic (annexin V+/propidium iodide+). All the cell lines (697, RS, REH) were cultured in the absence and in the presence of human bone marrow stromal cells (MSC) in order to reproduce as closely as possible the condition that occurs in the bone marrow.
After 48 hours of incubation, cells were separated from the stroma and processed for the analysis of apotosis.

The subject of assay [2] is human leukaemic cells REH. The assay can be described thus: In vivo model of human leukaemia: REH cells inoculated into NOD/SCID mice. The procedure:
FIG. 2. Effect of corticosteroids, inhibitors of hERG1 and of the combination corticosteroids/hERG1 inhibitors in an in vivo model of human leukaemia disease (human leukaemic cells REH inoculated into NOD/SCID mice). Cells were inoculated by injection into the caudal vein and seven days after the inoculum, animals were treated with E4031, Dexamethasone, Dexamethasone+E4031 for two weeks; control mice were treated, with the same schedule, solely with saline solution. At the end of the two weeks of treatment, animals were sacrificed and the spleen and bone marrow were removed. Bone marrow engraftment was evaluated by measuring the percentage of hCD45^+ cells versus mCD45^+ cells by flow cytometry. For the evaluation of apoptosis, the Tunel assay was performed on the histological sections of the treated animals.
In FIG. 2 the effects of corticosteroids, hERG1 inhibitors and combination of corticosteroids/hERG1 inhibitors in an in vivo model of human leukaemic disease (human leukaemic cells REH inoculated in NOD / SCID mice) is shown. The cells were inoculated by injection into the tail vein and seven days after injection, the animals were treated with E4031, dexamethasone, dexamethasone+E4031 for two weeks; the control mice were treated, according to the same protocol, only with saline.
At the end of two weeks of treatment the animals were sacrificed and the spleens and bone marrows were removed. The bone marrow engraftment was assessed by measuring the percentage of hCD45+cells versus mCD45+cells by flow cytometry. The Tunel assay for evaluation of apoptosis was performer on bone marrow histological sections from the control and treated animals.

For assay [3], the system named is AML cell lines and primary samples. The conditions noted are these: administration of hERG1 blockers; cited from earlier work.
For assay [4], the system named is ALL(3), ALL(4), ALL(6) cells. The assay is described as follows: Annexin V/propidium iodide apoptosis of primary ALL cells cultured in the absence or presence of MSC. It is filed as cell-based, human. The following applies: FIG. 1C, co-culture with stromal cells.
Description: The analysis is performed with the flow cytometer FACScan (Becton Dickinson). […] We next evaluated the apoptosis. […] The analysis of PS on the plasma membrane of apoptotic cells is performed by using annexin V-fluorescein and propidium iodide (PI) assay (Annexin-V-Fluos Staining Kit, Roche). The protocol of annexin requie, first, the preparation of the reaction mix, containing 20 μl of annexin and 20 μl of propidium iodide diluted in 1 ml of incubation buffer (1 ml of such mix is enough for 10 samples). About 10^6 cells are washed with PBS and centrifuged at 200 g for 5 minutes; the cell pellet is then resuspend in 100 μl of the solution previously described and incubated for 10-15 min at 15-25° C. The samples are resuspended in 500 μl of incubation buffer, before proceeding to flow cytometry analysis. […] After 48 hours of incubation, cells were separated from the stroma and processed for the analysis of apotosis.

Turning to `CC[C@H]1OC(=O)[C@H](C)[C@@H](O[C@H]2C[C@@](C)(OC)[C@@H](O)[C@H](C)O2)[C@H](C)[C@@H](O[C@@H]2O[C@H](C)C[C@H](N(C)C)[C@H]2O)[C@](C)(O)C[C@@H](C)C(=O)[C@H](C)[C@@H](O)[C@]1(C)O` [erythromycin, 6-(4-dimethylamino-3-hydroxy-6-methyl-Ossan-2-yl) oxy-14-ethyl-7,12,13-triidrossi-4-(5-hydroxy-4 methoxy-4,6-dimethyl -Ossan-2-yl) oxy-3,5,7,9,11,13-esametil ossaciclotetradecan-1-2,10-dione], the MSC mediated chemoresistance entry in assay [1] is on record as “overcome”.

In the case of `Cc1cccc(CCN2CCC(C(=O)c3ccc(NS(C)(=O)=O)cc3)CC2)n1.Cl.Cl` [E4031, N-[4-[[1-[2-(6-Methyl-2-pyridyl)ethyl]-4-piperidinyl]carbonyl]phenyl]metanesolfonammide dihydrochloride], the “effect on engraftment compared with dexamethasone alone” value in assay [2] was “higher than that produced by dexamethasone alone”. In addition, the “apoptosis of ALL cells in the bone marrow” value in assay [2] (Tunel assay) is reported as “increase”. Moreover, the “engraftment in the bone marrow” value in assay [2] (treatment for two weeks starting seven days after inoculum, hCD45+ versus mCD45+ cells) is “reduced”. Moreover, in assay [1], the MSC mediated chemoresistance result is reported as “overcome”.

Consider `CN(CCN(C)S(=O)(=O)c1ccc(NS(C)(=O)=O)cc1)c1nc2ccccc2n1C.Cl` [Way 123,398, N-metil-N-(2-(metil(1-metil-1H-benzimidazol-2-il)amino)etil)((metilsolfonil)amino)benzensolfonammide HCl], for which the cellular growth entry in assay [3] was “impairs cellular growth”. In addition, the MSC mediated chemoresistance result in assay [1] is on record as “overcome”.

Consider `COc1cccc2c1C(=O)c1c(O)c3c(c(O)c1C2=O)C[C@@](O)(C(=O)CO)C[C@@H]3O[C@H]1C[C@H](N)[C@H](O)[C@H](C)O1` [doxorubicin], for which the “responsiveness of leukaemic cells co-cultured with stromal cells compared to leukaemic cells alone” value in assay [4] is “significantly less responsive”.

Regarding `O=C1NCCN1CCN1CCC(c2cn(-c3ccc(F)cc3)c3ccc(Cl)cc23)CC1` [sertindole, 1-(2-{4-[5-chloro-1-(4-FLUORO-PHENYL)-1H-indole-3-IL]-IL-1-Piperidine}-ethyl)-imidazolidin-2-ONE, 1-[2-[4-[5-Chloro-1-(4-fluorophenyl)-1H-indole-3-a]-1-piperidinyl]ethyl]-2-Imidazolidinone], the MSC mediated chemoresistance entry in assay [1] was “overcome”.
